Data on 26 compounds can be found in patent US10344039B2, “Macrocyclic spirocarbamate derivatives as factor XIa inhibitors, pharmaceutically acceptable compositions and their use” (MERCK SHARP & DOHME CORP., priority 2015, dated 2019).

For the assay, the target named is T1, purified human Factor XIa (Homo sapiens, UniProt P03951).
T1 construct: purified human Factor XIa; purchased Sekisui Diagnostics
T1 sequence (P03951 388-625 limits assumed): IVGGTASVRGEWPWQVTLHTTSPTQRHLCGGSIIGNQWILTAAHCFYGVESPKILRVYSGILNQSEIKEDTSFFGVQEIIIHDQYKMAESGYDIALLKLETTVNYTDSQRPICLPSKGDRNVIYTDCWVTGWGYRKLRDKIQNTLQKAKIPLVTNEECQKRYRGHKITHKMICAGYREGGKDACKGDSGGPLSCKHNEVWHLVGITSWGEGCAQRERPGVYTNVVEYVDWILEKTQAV
T1 sequence (P03951 19-387 partner limits assumed): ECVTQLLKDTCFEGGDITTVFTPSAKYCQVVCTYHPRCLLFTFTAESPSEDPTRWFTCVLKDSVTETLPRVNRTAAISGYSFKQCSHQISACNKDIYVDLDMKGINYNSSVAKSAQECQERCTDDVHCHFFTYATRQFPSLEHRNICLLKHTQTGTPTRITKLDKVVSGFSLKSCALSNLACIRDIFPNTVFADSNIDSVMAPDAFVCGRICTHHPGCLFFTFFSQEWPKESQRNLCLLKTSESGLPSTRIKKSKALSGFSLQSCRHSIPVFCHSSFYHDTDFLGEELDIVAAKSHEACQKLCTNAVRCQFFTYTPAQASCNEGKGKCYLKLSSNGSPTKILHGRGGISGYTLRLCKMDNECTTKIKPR
Kind of assay: Factor XIa Assay. Type of assay: biochemical. The following applies: purified human Factor XIa 40 pM; substrate Z-Gly-Pro-Arg-AFC 100 μM; 50 mM HEPES pH 7.4; read-out: Hu FXIa Ki. The method, then: The effectiveness of a compound of the present invention as an inhibitor of Coagulation Factor XIa can be determined using a relevant purified serine protease, and an appropriate synthetic substrate. The rate of hydrolysis of the chromogenic or fluorogenic substrate by the relevant serine protease was measured both in the absence and presence of compounds of the present invention. Assays were conducted at room temperature or at 37° C. […] A decrease in the rate of fluorescence change in the presence of inhibitor is indicative of enzyme inhibition. Such methods are known to one skilled in the art. The results of this assay are expressed as the inhibitory constant, Ki.
Factor XIa determinations were made in 50 mM HEPES buffer at pH 7.4 containing 150 mM NaCl, 5 mM CaCl2, and 0.1% PEG 8000 (polyethylene glycol; JT Baker or Fisher Scientific). Determinations were made using purified human Factor XIa at a final concentration of 40 pM (Sekisui Diagnostics) and he synthetic substrate, Z-Gly-Pro-Arg-AFC, TFA salt (Sigma #C0980) at a concentration of 100 μM.
Activity assays were performed by diluting a stock solution of substrate at least tenfold to a final concentration ≤0.1 Km into a solution containing enzyme or enzyme equilibrated with inhibitor. Times required to achieve equilibration between enzyme and inhibitor were determined in control experiments. Initial velocities of product formation in the absence (Vo) or presence of inhibitor (Vi) were measured. Assuming competitive inhibition, and that unity is negligible compared Km/[S], [I]/e, and [I]/e (where [S], [I], and e respectively represent the total concentrations, of substrate, inhibitor and enzyme), the equilibrium constant (Ki) for dissociation of the inhibitor from the enzyme can be obtained from the dependence of Vo/Vi on [I] shown in the following equation. Vo/Vi=1+[I]/Ki
The activities shown by this assay indicate that the compounds of the invention may be therapeutically useful for treating or preventing various cardiovascular and/or cerebrovascular thromboembolic conditions in patients suffering from unstable angina, acute coronary syndrome, refractory angina, myocardial infarction, transient ischemic attacks, atrial fibrillation, stroke such as thrombotic stroke or embolic stroke, venous thrombosis, coronary and cerebral arterial thrombosis, cerebral and pulmonary embolism, atherosclerosis, deep vein thrombosis, disseminated intravascular coagulation, and reocclusion or restenosis of recanalized vessels. The Ki values measured for each of the example compounds of the invention using this assay are reported in the tables above (as “Hu FXIa Ki (nM)”).
Turning to `COC(=O)Nc1ccc2c(c1)NC(=O)CCCCC[C@H](C(=O)N1CCC[C@@]3(C1)OC(=O)Nc1ccc(Cl)c(F)c13)c1cc-2ccn1` [Example 19b, methyl ((S)-10-((R)-6-chloro-5-fluoro-2-oxo-1,2-dihydrospiro[benzo[d][1,3]oxazine-4,3′-piperidine]-1′-carbonyl)-4-oxo-3-aza-1(4,2)-pyridina-2(1,2)-benzenacyclodecaphane-2^4-yl)carbamate], the Ki (commonly the equilibrium dissociation constant of an inhibitor or competing ligand from its target) was > 875 nM.
Consider `O=C1Nc2ccc(Cl)c(F)c2[C@@]2(CCCN(C(=O)C3CCCCC(C(=O)O)Nc4ccc(F)cc4-c4ccnc3c4)C2)O1` (single isomer, unassigned) [Example 35b], for which the Ki is > 875 nM.
`COC(=O)Nc1ccc2c(c1)NC(=O)CCCC[C@H](C(=O)N1CCC[C@@]3(C1)OC(=O)Nc1ccc(Cl)cc13)c1cc(F)cc-2c1` [Example 29b, methyl ((S)-9-((R)-6-chloro-2-oxo-1,2-dihydrospiro[benzo[d][1,3]oxazine-4,3′-piperidine]-1′-carbonyl)-1^5-fluoro-4-oxo-3-aza-1(1,3),2(1,2)-dibenzenacyclononaphane-2^4-yl)carbamate]: the Ki was > 8750 nM.
In the case of `CCOC(=O)C1CCCCC(C(=O)N2CCC[C@@]3(C2)OC(=O)Nc2ccc(Cl)c(F)c23)c2cc(ccn2)-c2cc(F)ccc2N1` (single isomer, unassigned) [Example 34d], the Ki was > 875 nM.
For the compound `COC(=O)Nc1ccc2c(c1)NC(=O)C(C)CCCC(C(=O)N1CCC[C@@]3(C1)OC(=O)Nc1ccc(Cl)cc13)c1cc-2ccn1` (single isomer, unassigned) [Example 15b], the inhibition constant (Ki) worked out at 749 nM.
With `O=C1CCCC[C@H](C(=O)N2CCC[C@@]3(C2)OC(=O)Nc2ccc(Cl)cc23)c2nc(c[nH]2)-c2ccc(F)cc2N1` (single isomer, unassigned) [Example 2b], the Ki is > 5000 nM.
Turning to `COC(=O)Nc1ccc2c(c1)NC(=O)CCCC[C@H](C(=O)N1CC[C@@]3(C1)OC(=O)Nc1ccc(Cl)cc13)c1nc-2c[nH]1` (single isomer, unassigned) [Example 1b], the Ki was 258 nM.
The same measure for `CCOC(=O)C1CCCCC(C(=O)N2CC[C@@]3(C2)OC(=O)Nc2ccc(Cl)c(F)c23)c2cc(ccn2)-c2cc(F)ccc2N1` (single isomer, unassigned) [Example 36a]: > 875 nM; for `COC(=O)Nc1ccc2c(c1)NC(=O)C(C)CCCC(C(=O)N1CCC[C@@]3(C1)OC(=O)Nc1ccc(Cl)cc13)c1cc-2ccn1` (single isomer, unassigned) [Example 15c]: 1760 nM; for `CCOC(=O)C1CCCCC(C(=O)N2CCC[C@@]3(C2)OC(=O)Nc2ccc(Cl)c(F)c23)c2nc(c[nH]2)-c2ccc(NC(=O)OC)cc2N1` (single isomer, unassigned) [Example 32d]: > 875 nM.
The same measure for `COC(=O)Nc1ccc2c(c1)NC(=O)CC/C=C/C[C@H](C(=O)N1CCC[C@@]3(C1)OC(=O)Nc1ccc(Cl)c(F)c13)c1cc-2ccn1` [Example 21b, methyl ((S,E)-10-((R)-6-chloro-5-fluoro-2-oxo-1,2-dihydrospiro[benzo[d][1,3]oxazine-4,3′-piperidine]-1′-carbonyl)-4-oxo-3-aza-1(4,2)-pyridina-2(1,2)-benzenacyclodecaphanen-2^4-yl)carbamate]: > 875 nM; for `CCOC(=O)C1CCCCC(C(=O)N2CCC[C@@]3(C2)OC(=O)Nc2ccc(Cl)c(F)c23)c2cc(ccn2)-c2cc(F)ccc2N1` (single isomer, unassigned) [Example 34a]: 628 nM; for `COC(=O)Nc1ccc2c(c1)NC(=O)[C@H](C)CCC[C@H](C(=O)N1CCC[C@@]3(C1)OC(=O)Nc1ccc(Cl)c(F)c13)C1=NC=C2O1` [Example 14b, methyl ((5R,9S)-9-((R)-6-chloro-5-fluoro-2-oxo-1,2-dihydrospiro[benzo[d][1,3]oxazine-4,3′-piperidine]-1′-carbonyl)-5-methyl-4-oxo-3-aza-1(5,2)-oxazola-2(1,2)-benzenacyclononaphane-2^4-yl)carbamate]: 217 nM.
The same measure for `O=C1CCCC[C@@H](C(=O)N2CCC[C@@]3(C2)OC(=O)Nc2ccc(Cl)cc23)c2nc(c[nH]2)-c2ccc(F)cc2N1` (single isomer, unassigned) [Example 2a]: 268 nM; for `CCOC(=O)C1CCCCC(C(=O)N2CCC[C@@]3(C2)OC(=O)Nc2ccc(Cl)c(F)c23)c2nc(c[nH]2)-c2ccc(NC(=O)OC)cc2N1` (single isomer, unassigned) [Example 32c]: 536 nM; for `CCOC(=O)C1CCCCC(C(=O)N2CCC[C@@]3(C2)OC(=O)Nc2ccc(Cl)c(F)c23)c2cc(ccn2)-c2cc(F)ccc2N1` (single isomer, unassigned) [Example 34b]: > 875 nM.
Turning to `COC(=O)Nc1ccc2c(c1)NC(=O)CCCC[C@H](C(=O)N1CCC[C@@]3(C1)OC(=O)Nc1ccc(Cl)c(F)c13)c1cc(F)cc-2c1` [Example 30a, methyl ((S)-9-((R)-6-chloro-5-fluoro-2-oxo-1,2-dihydrospiro[benzo[d][1,3]oxazine-4,3′-piperidine]-1′-carbonyl)-1^5-fluoro-4-oxo-3-aza-1(1,3),2(1,2)-dibenzenacyclononaphane-2^4-yl)carbamate], the inhibition constant Ki is > 8750 nM.
The same measure for `COC(=O)Nc1ccc2c(c1)NC(=O)CCCCC[C@H](C(=O)N1CC[C@@]3(C1)OC(=O)Nc1ccc(Cl)c(F)c13)c1cc-2ccn1` [Example 18b, methyl ((S)-10-((R)-6-chloro-5-fluoro-2-oxo-1,2-dihydrospiro[benzo[d][1,3]oxazine-4,3′-pyrrolidine]-1′-carbonyl)-4-oxo-3-aza-1(4,2)-pyridina-2(1,2)-benzenacyclodecaphane-2^4-yl)carbamate]: 198 nM; for `COC(=O)Nc1ccc2c(c1)NC(=O)CCCC[C@H](C(=O)N1CCC[C@@]3(C1)OC(=O)Nc1ccc(Cl)cc13)c1nc-2c(Cl)[nH]1` [Example 7b, methyl ((S,Z)-1^5-chloro-9-((R)-6-chloro-2-oxo-1,2-dihydrospiro[benzo[d][1,3]oxazine-4,3′-piperidine]-1′-carbonyl)-4-oxo-1^1H-3-aza-1(4,2)-imidazola-2(1,2)-benzenacyclononaphane-2^4-yl)carbamate]: 1830 nM; for `COC(=O)Nc1ccc2c(c1)NC(=O)CCCCC[C@@H](C(=O)N1CCC[C@@]3(C1)OC(=O)Nc1ccc(Cl)c(F)c13)c1cc-2ccn1` [Example 19a, methyl ((R)-10-((R)-6-chloro-5-fluoro-2-oxo-1,2-dihydrospiro[benzo[d][1,3]oxazine-4,3′-piperidine]-1′-carbonyl)-4-oxo-3-aza-1(4,2)-pyridina-2(1,2)-benzenacyclodecaphane-2^4-yl)carbamate]: 49 nM.
`Nc1ccc2c(c1)NC(=O)CC/C=C\C[C@H](C(=O)N1CCC[C@@]3(C1)OC(=O)Nc1ccc(Cl)c(F)c13)c1cc-2ccn1` (single isomer, unassigned) [Example 20b]: the inhibitory constant (Ki) is > 875 nM.
In the case of `O=C1Nc2ccc(Cl)c(F)c2[C@@]2(CCN(C(=O)C3CCCCC(C(=O)O)Nc4ccc(F)cc4-c4ccnc3c4)C2)O1` (single isomer, unassigned) [Example 37b], the Ki is > 875 nM.
As for `COC(=O)Nc1ccc2c(c1)NC(=O)CCCCC[C@H](C(=O)N1CCC[C@@]3(C1)OC(=O)Nc1ccc(Cl)cc13)c1cc-2ccn1` [Example 16a, methyl ((S)-10-((R)-6-chloro-2-oxo-1,2-dihydrospiro[benzo[d][1,3]oxazine-4,3′-piperidine]-1′-carbonyl)-4-oxo-3-aza-1(4,2)-pyridina-2(1,2)-benzenacyclodecaphane-2^4-yl)carbamate], the Ki is > 875 nM.
In the case of `COC(=O)Nc1ccc2c(c1)NC(=O)CCCC[C@H](C(=O)N1CC[C@@]3(C1)OC(=O)Nc1ccc(Cl)c(F)c13)c1cccc-2n1` (single isomer, unassigned) [Example 23a], the Ki was > 875 nM.
Turning to “(R)-6-chloro-1′-((R,Z)-2^4-fluoro-4-oxo-11H-3-aza-1(4,2)-imidazola-2(1,2)-benzenacyclononaphane-9-carbonyl)spiro[benzo[d][1,3]oxazine-4,3′-pyrrolidin]-2(1H)-one [Example 5b]”, the Ki is 180 nM.
Take `COC(=O)Nc1ccc2c(c1)NC(=O)CCCC[C@H](C(=O)N1CCC[C@@]3(C1)OC(=O)Nc1ccc(Cl)cc13)c1nc-2c[nH]1` [Example 3b, methyl ((S,Z)-9-((R)-6-chloro-2-oxo-1,2-dihydrospiro[benzo[d][1,3]oxazine-4,3′-piperidine]-1′-carbonyl)-4-oxo-1^1H-3-aza-1(4,2)-imidazola-2(1,2)-benzenacyclononaphane-2^4-yl)carbamate]: the Ki amounted to 65 nM.
